Data set [1] in a line: Thermal decomposition by TGA. Format: physicochemical. To be noted: neat prodrug.
The next data set has as its system 4T1 tumour. Briefly: Second 4T1 tumour study, daily dosing for 17 days (Example 7). The source says: Also, the dosage of both compounds was increased to 1.5 mmol for each treatment.
A short description of data set [2]: Particle size distribution of dispersions by dynamic light scattering. The note with it: for Average Particle size: dispersions used in the hydrolysis study, physiological temperature. Format: physicochemical. The procedure:
BASF) equivalent to 10% (w/w) of neat amphiphile and absolute ethanol were weighed in a sample vial. […] These crude dispersions were then passed through a series of PC membranes from the size range from 1 um to 100 nm to obtain a more uniform size distribution for the particles. The equipment used for size control is a mini-extruder (Avanti Polar Lipids, USA). […] The final concentration of colloidosomes were determined by ultra performance liquid chromatography (UPLC) and then diluted to 1 mg/mL for use in the enzyme hydrolysis study The particle size distribution and morphology of the above suspensions were determined using the method as described herein by using zetasizer and cryo-TEM characterisation methods. Solid lipid particles of prodrug 5-FCPal were prepared using mechanical methods. […] The melted prodrug and poloxamer mixture was then transferred to 40 mL of pre-warmed water upon vigorous vortexing. The mixture was then sheared with a rough homogenizer (Ultra Turrax®, T18 Basic, IKA® Werke GmbH & Co. KG, Germany) at 14,000 rpm for 10 min. The resultant dispersion was further transferred to the ultrasonic benchtop cleaner for a few hours of ultra sonication. […] Determination of the particle size distribution of the colloidosome and solid lipid particle dispersions were carried out using a Zetasizer (nano zs, Malvern, England) equipped with a He—Ne Laser (4 mw, 633 nm) and an avalanche photodiode detector. […] […] The size distribution was recorded by intensity.

For data set [3], the system named is Carboxylesterase from porcine liver. Briefly: Hydrolysis of prodrugs by porcine liver carboxylesterase (CES), LC/MS. As to the method:
High purity Capecitabine (as solid crystals) was purchased from Xingcheng Chemphar Co., Ltd, P.R.China. […] Millipore water was used to prepare the prodrugs solutions with appropriate concentrations, while phosphate buffered saline (pH 7.4, PBS) was used in the preparation of different concentrations of enzyme.
Stock solution of Capecitabine was prepared by dissolving pure white Capecitabine into warm water. 1 mg/mL of Capecitabine solution was then further obtained by diluting the stock solution with milli-Q water. […] Prior to the experiments, prodrug particles were incubated at 37° C. for at least two weeks to achieve the equilibrium state of certain phases.
Stock solution of 10 mg/mL carboxylesterase solution was prepared by weighting 10 mg of powder enzyme in 1 mL of PBS buffer and shaking gently by hand. The concentration of the enzyme solution was adjusted to 1 mg/mL and 0.01 mg/mL by dilution of the stock solution. These solutions were used for the enzymatic hydrolysis of the prodrugs and Capecitabine respectively. […]
To measure the rate of the enzymatic reaction precisely, the starting substrate and the enzyme solution were mixed for a defined time by rapidly mixing together the two stock solutions and shaking. The time at which enzyme solution was added was taken as time zero for the hydrolysis reaction. The mixture was maintained at 37° C. throughout the experiment. The concentration of the hydrolysis product was then measured at various times using LC/MS (Finnigan LCQ Series, Thermo Scientific, USA). The time at which the sample was injected into the LC column was taken to be the reaction time for such sample. The hydrolysis progress curve showing the decrease in the concentration of original substrate was subsequently plotted.
The concentrations of prodrugs were determined using Thermo Finnigan LC/MS equipped with an atmospheric pressure chemical ionization (APCI) probe in positive ion mode. 10 μL of sample withdrawn from the reaction solution was injected directly into a Platinum EPS C18 100 Å 5u LC column with the length of 150 mm and internal diameter of 4.6 mm (Alltech, Australia). A mixture of 30% LCMS grade water and 70% Methanol was employed as mobile phase with the flow rate of 1 ml/min. The sample after the column separation was eluted to APCI source (MS full positive scan) to determine the molecular weight of the substrates. The vaporizer temperature of the APCI probe was set at 450° C. and the capillary temperature was operated at 200° C. The sample temperature was well maintained at 37° C. during the entire measurement by incubating the sample in the temperature controlled auto-sampler. Data were acquired and processed with Xcalibur Quan chromatography software.
The decreased concentration of substrate and the increased hydrolysis product 5′-dFCyd were detected based on the different retention time on chromatogram and m/z value in the MS positive scan. […] The decreased/increased ratio of reactant/5′dFCyd was determined by comparing the integration areas of the corresponding peaks.
The enzyme hydrolysis reaction was plotted as the logarithm of the ratio of original prodrug concentration to the decreased concentration of prodrug at a certain incubation time as a function of reaction time (Ln [S]0/[S] vs T).
In order to compare the enzymatic activity for each individual substrate to CES, we calculate a global reaction rate expressed as a specific activity (SA) (μmol/min/mg enzyme): SA=Δ[S]/(Δt·[CCES])
Here, as is common when discussing the SA, [CCES] is the enzyme concentration in mg/ml, Δ[S] is the substrate concentration change in μmol/ml during Δt time.

Data set [4] is described as follows: Lyotropic phase behaviour: water penetration scans, SAXS and XRD. Format: physicochemical. The note with it: for lyotropic phase behaviour in water penetration scans: concentration gradient from neat amphiphile to pure water, heated from room temperature; for Lyotropic phase behaviour: particle form in water at physiological temperature; for d-spacing: RT, Lc. The source says:
Lyotropic mesophase behaviour was studied using water penetration experiments. Neat amphiphile was placed on a glass slide, melted and cooled to facilitate sample homogenization and then covered with a glass cover slip. A few drops of Milli-Q water were then introduced to the edge of the cover slip which was drawn in by capillary action resulting in a concentration gradient from pure amphiphile in the centre to pure water around the edges of the cover slip. The generated mesophases were identified by their characteristic birefringent textures. Samples were then heated at 2° C./min from room temperature to ˜99° C. using an FP90 Linkam hotstage (Linkam Scientific Instruments, England). Thermotropic phase behaviour was also examined in the similar method but in the absence of water. The phases were viewed using an Olympus GX51 inverted polarising microscope (Olympus Australia Pty. Ltd, Australia) equipped with an Olympus C-5060 digital camera for image capture. All images were taken with 100× magnification unless elsewhere stated. […] The bulk phase of the binary amphiphile/water system was prepared by weighing the appropriate amount of sample and water in a sample vial. For those samples requiring pre-treatment, the samples were quickly melted in a pre-heated temperature controlled silicon-oil heating bath prior to addition of water. […] The prepared samples were analysed using an Anton-Paar SAXSess (Graz, Austria) with PANalytical PW3830 stand-alone X-ray generator operating at 40 kv, 50 mA with a sealed-tube Cu anode (λCu—Kα=0.154 nm). The samples were loaded into a paste cell sample holder at room temperature. […] Temperature control was via a TCU Temperature Control Unit (Anton Paar). […] The scattering results were recorded and analysed by the accompanied Anton Paar software.

The mark [5] stands for this setting: DLS at 25° C., 5-FCPhy and 5-FCOle after membrane extrusion, 5-FCPal solid lipid particles.
[6] abbreviates: porcine liver CES, 37° C., enzyme 0.5 mg/mL for prodrugs.
Setting [7] is: porcine liver CES, 37° C., enzyme 0.5 mg/mL for prodrugs, 0.005 mg/ml for Capecitabine.
The mark [8] stands for this setting: in excess water with 2.3% F127 and 4.87% Ethanol, SAXS, 37° C.
Where [9] appears, read: in excess water, RT (25° C.), SAXS.

For the molecule `CCCCCCCC/C=C\CCCCCCCCOC(=O)Nc1nc(=O)n(C2OC(C)C(O)C2O)cc1F` (stereo not drawn) [Prodrug 5-FCOle, 5′-deoxy-5-fluoro-N^4-(cis-9-octadecenyl-1-oxycarbonyl)cytidine], the “temperature at which decomposition starts (TGA)” value in data set [1] was found to be 123 °C. The “average 4T1 tumour volume by day 17” value in the data set on 4T1 tumour (1.5 mmol for each treatment, daily for 17 days) was “significantly smaller tumour volumes”. Moreover, in the data set on 4T1 tumour (FIG. 19), the “spleens from animals sacrificed at 17 days (images)” value was “normal spleens” and the “tumours from animals sacrificed at 17 days (images)” value is given as “significantly smaller tumours”. For the same molecule, the “time for tumours to reach a similar size as the other treatment groups after treatment was stopped” value in the data set on 4T1 tumour (treatment stopped on day 17) is given as “a full week”. Further, in data set [2] (setting [5]), the “mean (average) particle size” value is recorded as 255 nm and the particle size distribution is reported as 150-500 nm. The “Average Particle size” value in data set [2] is recorded as 261 nm. Besides, the “SA relative to 5-FCPal” value in data set [3] (CES hydrolysis) is roughly 10 times. Moreover, the “Specific Activity (SA) at time t = 12 h” value in data set [3] (setting [6]) stood at 2.37. Moreover, in data set [3] (setting [7]), the Specific Activity (SA) at time t = 1 h was found to be 4.97 µmol/min/mg, the Specific Activity (SA) at time t = 2 h was 3.7 µmol/min/mg and the Specific Activity (SA) at time t = 6 h came out at 2.24 µmol/min/mg. Also, in data set [4], the “lyotropic phase behaviour in water penetration scans” value is “traditional lamellar (L[…]) phase at room temperature and 3D cubic (Pn3m) phase at elevated temperatures above 33 °C”; the Lyotropic phase behaviour result is “Cubosome”. Besides, in data set [4] (setting [8]), the Lattice parameter is 37 °C Pn3m: 9.10 nm and the Phases result is given as “Pn3m”. In data set [4] (in excess water, 37° C., SAXS), the Lattice parameter was 37 °C Pn3m: 10.40 nm and the Phases came to 37 °C Pn3m. In data set [4] (setting [9]), the Lattice parameter was 25 °C Lα: 6.01 nm and the Phases entry is reported as “RT: Lα”. In addition, the Phases result in data set [4] (neat, SAXS, 25, 37° C.) is on record as “Smectic”. Further, the Lattice parameter in data set [4] (neat, SAXS, 25° C.) is listed as 25° C.: 2.99 nm. In data set [4] (neat, SAXS, 37° C.), the Lattice parameter is 37° C.: 3.00 nm. Besides, in data set [4] (neat, XRD, 25° C.), the Lattice parameter came out at 2.977 nm and the Phases entry is “Smectic”.
Take “5′-deoxy-5-fluoro-N^4-(cis-9,cis-12-octadecenyl-1-oxycarbonyl)cytidine [Prodrug 5-FCLeo]”: in data set [4] (physiological temperatures), the “phase in excess water” value is on record as “fluid isotropic phase”. Besides, in data set [4] (limited hydration, physiological temperatures), the “phase at limited hydration” value is listed as “inverse phases”.
Regarding `CCCCCOC(=O)Nc1nc(=O)n([C@@H]2O[C@H](C)[C@@H](O)[C@H]2O)cc1F` [Capecitabine, reference compound], the “time to hydrolysis to 5-FC” value in data set [3] (5 mg/ml and 0.5 mg/ml enzyme concentration) was no more than 30 min. In addition, the “enzyme activities (SA)” value in data set [3] (obtained from three enzymatic concentrations) is 600-900 μmol/min/mg enzyme. Further, in data set [3] (setting [7]), the Specific Activity (SA) at time t = 0.5 h was 933 µmol/min/mg, the Specific Activity (SA) at time t = 1 h came to 733 µmol/min/mg, the Specific Activity (SA) at time t = 2 h was 717 µmol/min/mg and the Specific Activity (SA) at time t = 6 h stood at 598 µmol/min/mg.
For the molecule `CCCCCCCCCCCCCCCCOC(=O)Nc1nc(=O)n([C@@H]2O[C@H](C)[C@@H](O)[C@H]2O)cc1F` [Prodrug 5-FCPal, 5′-deoxy-5-fluoro-N^4-(hexadecyl-1-oxycarbonyl)cytidine], the “temperature at which decomposition starts (TGA)” value in data set [1] is “approximately 120 °C”. In data set [2] (setting [5]), the “mean (average) particle size” value is recorded as 700 nm. In addition, the “Average Particle size” value in data set [2] was found to be 661 nm. The “time over which hydrolysis continued towards full conversion” value in data set [3] (CES 0.5 mg/mL, 37° C.) was “more than 7 days”. Moreover, the “Specific Activity (SA) at time t = 24 h” value in data set [3] (setting [6]) amounted to 0.27 µmol/mL. Also, in data set [3] (setting [7]), the Specific Activity (SA) at time t = 1 h was 0.3 µmol/min/mg, the Specific Activity (SA) at time t = 2 h was 0.38 µmol/min/mg and the Specific Activity (SA) at time t = 6 h was found to be 0.33 µmol/min/mg. In addition, in data set [4], the “lyotropic phase behaviour in water penetration scans” value is listed as “did not swell” and the Lyotropic phase behaviour entry is “Solid lipid”. For the same molecule, in data set [4] (in excess water, equilibration @ RT 7 Days, RT, 37, 50° C.), the Phases entry is reported as “Lamellar”. In data set [4] (in excess water, equilibration @ RT 7 Days), the d-spacing entry is reported as “(2.86 nm)”. Besides, the Phases entry in data set [4] (without water, RT, 37, 50, 70, 90° C., SAXS confirmed with XRD) is “Lamellar”. For the same molecule, the d-spacing entry in data set [4] (without water) is reported as “(2.87 nm)”.
On to “5′-deoxy-5-fluoro-N^4-(octadecyl-1-oxycarbonyl)cytidine [Prodrug 5-FCSte]”, for which, in data set [4] (physiological temperatures), the “phase in excess water” value is “lamellar phases”.

These data come from patent US8603999B2, “Amphiphile prodrugs” (Commonwealth Scientific and Industrial Research Organisation, priority 2008, dated 2013).
